# Data taken from PMC5086919, “Antileukemic Scalarane Sesterterpenoids and Meroditerpenoid from Carteriospongia (Phyllospongia) sp., Induce Apoptosis via Dual Inhibitory Effects on Topoisomerase II and Hsp90” (Scientific Reports, 2016).
# Assays:
# [1] = test system: ER stress-related proteins in Molt 4 cells; assay: Western blot of ER stress-related proteins; type: cell-based, human; settings: 0.0625 μg/mL, time-dependent
# Experimental: Oxidative stress is manifested by ROS overexpression and cannot be balanced by the available antioxidant machinery. Compound 1 can damage the integrity of mitochondria, which are the major production sites of the superoxide anion, […]. The induction of the intracellular formation of ROS by 1 was determined with a carboxyl derivative of fluorescein, carboxy-H2DCFDA dye using flow cytometric analysis. […] In addition, ROS generation could induce ER stress leading to mitochondria-related apoptosis. To further investigate if ER stress is involved in the apoptotic effect induced by 1, Western blot analysis was used to determine the expression of ER stress-related proteins. […] Furthermore, the effect of 1 on the release of intracellular Ca^2+, was evaluated using fluorescent calcium indicator, Fluo 3. […] The effect of 1 (0.0625 μg/mL) at different time intervals (0, 3, 6 and 9 h) on the level of nuclear DNA integrity was determined. […]
# Cell lysates were prepared by treating the cells for 30 min in RIPA lysis buffer, 1% Nonidet P-40, 0.5% sodium deoxycholate, 0.1% sodium dodecyl sulphate (SDS), 1 mM sodium orthovanadate, 100 μg/mL phenylmethylsulfonyl fluoride and 30 μg/mL aprotinin) (all chemicals were from Sigma)[38]. The lysates were centrifuged at 20,000 × g for 30 min, and the protein concentration in the supernatant was determined using a BCA protein assay kit (Pierce). […]
# Molt 4 cells = assay: Annexin V/PI apoptosis assay; type: cell-based, human
# Experimental: The externalization of phosphatidylserine (PS) and membrane integrity were quantified using an annexin V- FITC staining kit[72]. In brief, 10^6 cells were grown in 35 mm diameter plates and were labeled with annexin V-FITC (10 μg/mL) and PI (20 μg/mL) prior to harvesting. After labeling, all plates were washed with a binding buffer and harvested. Cells were resuspended in the binding buffer at a concentration of 2 × 10^5 cells/mL before analysis by flow cytometer FACS-Calibur (Becton-Dickinson, San Jose, CA, USA) and CellQuest software. Approximately 10,000 cells were counted for each determination.
# HL 60 cells = assay: MTT antiproliferative assay, leukemia HL 60 cells; settings: Homo sapiens, HL-60, 72 h, read-out: IC50, cytotoxicity, Leukemia HL 60
# From the text: Several cancer cell lines including leukemia K562, Molt 4, and HL 60 cells, prostate cancer LNCaP cells, colon cancer DLD-1 cells and breast cancer T-47D cells were used to evaluate the antiproliferative activity.
# The cell lines were obtained from the American Type Culture Collection (ATCC, Manassas, VA, USA). […] Dimethyl sulfoxide (DMSO), 3-(4,5-dimethylthiazol-2-yl)-2,5-diphenyl-tetrazolium bromide (MTT) and all other chemicals were purchased from Sigma-Aldrich (St. Louis, MO, USA).
# Hsp70 in Molt 4 cells = assay: Immunofluorescence localization of Hsp70, confocal microscope; type: cell-based, human
# Experimental: It was also reported that the induction of Hsp70 is the biomarker of Hsp90 with N-terminal inhibition. Aiming to understand the relation between Hsp90 function and the expression of Hsp70 and 90 clients, we treated Molt 4 cells with 1 (0.0625 μg/mL) for different time intervals. […] The majority of Hsps accumulate in subcellular localizations that determine whether a cell is going to die or differentiate. Erythroblasts with accumulated nuclear Hsp70 continued their differentiation process during the formation of red blood cells. Furthermore, we identified the localization of Hsp70 in response to 1 treatment using immunofluorescence by confocal microscope.
# After treatment with the tested compound, cells were fixed with 4% paraformaldehyde in 50 mM HEPES buffer (pH 7.3) for 30 min, and permeabilized for 20 min with 0.2% Trition X-100 in PBS (pH 7.4). To prevent non-specific protein binding, cells were incubated with 5% BSA in PBS containing 0.05% Trition X-100 (T-PBS) for 1 h at room temperature. Cells were then incubated with the primary Hsp70 antibodies (1: 500) for 2 h and further with secondary antibodies (Alexa Fluor […] goat anti-mouse IgG (H + L) (Life Technologies, Carlsbad, CA, USA) diluted at 1:1000 for 1 h at room temperature. After washing with PBS, cells were observed under a FV1000 confocal laser scanning microscope (Olympus, Tokyo, Japan).
# human topoisomerase II = target: T1, human topoisomerase II (Homo sapiens, UniProt P11388); assay: Cell-free topoisomerase II DNA relaxation/cleavage assay with supercoiled pHOT1 plasmid DNA; type: biochemical; settings: compared with control supercoiled DNA
# T1 construct: purchased Topogen
# T1 sequence (P11388 whole entry): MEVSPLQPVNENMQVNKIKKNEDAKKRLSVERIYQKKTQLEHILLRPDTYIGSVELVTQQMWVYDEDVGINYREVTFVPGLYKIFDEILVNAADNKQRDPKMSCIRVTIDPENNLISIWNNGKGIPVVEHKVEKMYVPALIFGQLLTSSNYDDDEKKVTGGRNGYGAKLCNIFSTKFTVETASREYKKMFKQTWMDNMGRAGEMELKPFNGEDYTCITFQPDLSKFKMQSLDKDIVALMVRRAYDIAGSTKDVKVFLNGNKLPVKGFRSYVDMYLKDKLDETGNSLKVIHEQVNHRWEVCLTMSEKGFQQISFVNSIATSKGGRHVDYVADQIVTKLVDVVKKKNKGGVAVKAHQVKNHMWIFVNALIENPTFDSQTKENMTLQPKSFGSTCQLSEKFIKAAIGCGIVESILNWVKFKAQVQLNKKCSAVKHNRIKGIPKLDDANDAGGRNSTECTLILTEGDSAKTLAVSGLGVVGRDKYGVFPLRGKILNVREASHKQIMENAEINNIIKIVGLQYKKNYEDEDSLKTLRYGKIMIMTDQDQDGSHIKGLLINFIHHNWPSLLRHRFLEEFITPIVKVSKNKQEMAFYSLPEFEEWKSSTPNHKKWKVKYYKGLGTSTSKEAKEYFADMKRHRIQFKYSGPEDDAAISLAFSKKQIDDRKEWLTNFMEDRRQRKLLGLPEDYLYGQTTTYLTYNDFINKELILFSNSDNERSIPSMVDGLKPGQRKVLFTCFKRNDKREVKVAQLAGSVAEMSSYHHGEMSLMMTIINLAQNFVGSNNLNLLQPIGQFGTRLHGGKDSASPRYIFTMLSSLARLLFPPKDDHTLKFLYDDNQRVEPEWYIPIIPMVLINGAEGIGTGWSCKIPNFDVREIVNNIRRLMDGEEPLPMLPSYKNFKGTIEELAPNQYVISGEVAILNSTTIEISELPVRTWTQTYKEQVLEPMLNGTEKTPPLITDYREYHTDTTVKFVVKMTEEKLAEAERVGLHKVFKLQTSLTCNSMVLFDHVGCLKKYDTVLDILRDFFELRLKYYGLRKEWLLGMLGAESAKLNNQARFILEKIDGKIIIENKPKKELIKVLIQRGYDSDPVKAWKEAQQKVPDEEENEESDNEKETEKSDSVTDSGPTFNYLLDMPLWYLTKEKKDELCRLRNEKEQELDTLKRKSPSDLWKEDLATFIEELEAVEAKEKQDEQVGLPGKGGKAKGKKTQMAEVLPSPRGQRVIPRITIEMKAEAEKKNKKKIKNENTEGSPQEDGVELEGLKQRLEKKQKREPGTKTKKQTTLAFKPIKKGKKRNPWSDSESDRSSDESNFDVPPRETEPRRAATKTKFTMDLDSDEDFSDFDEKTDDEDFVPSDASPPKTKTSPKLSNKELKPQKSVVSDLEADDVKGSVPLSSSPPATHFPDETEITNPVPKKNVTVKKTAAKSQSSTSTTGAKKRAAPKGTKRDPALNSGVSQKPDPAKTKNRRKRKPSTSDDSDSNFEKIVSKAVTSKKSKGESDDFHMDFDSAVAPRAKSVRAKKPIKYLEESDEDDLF
# From the text: The ability of Topo II to generate DNA damage in the presence of Topo II-targeting agents led to the hypothesis that an important determinant of drug sensitivity was related to the overall level of Topo II[17]. […] Such findings encouraged us to evaluate the effect of the isolates on Topo II activity. In order to confirm whether the DNA damage-induced by the isolated sesterterpenoids involved the inhibition of Topo II activity, a cell-free DNA cleavage assay using an enzyme-mediated negatively supercoiled pHOT1 plasmid DNA was applied. […] These marine terpenoids suppressed Topo II activity, resulting in the inhibition of supercoiled DNA relaxation in a dose-dependent manner (Fig. 5A). […] To determine whether the apoptotic mechanism of these compounds affects γH2AX (as a biomarker of DNA damage) induction, Western blot analysis was employed to examine the activation of γH2AX.
# The assay was performed as described previously. […] Reactions were terminated by adding 2 μL of 10% SDS to facilitate trapping the enzyme in a cleavage complex, followed by the addition of 2.5 μL of proteinase K (50 μg/mL) to digest the bound protein (incubated at 37 °C for 15 min) and finally by adding 0.1 volume of the sample loading dye. The DNA products were analyzed via electrophoresis through vertical 2% agarose gels at 2 voltage/cm in 0.5 × TAE buffer. Gels were stained with ethidium bromide and photographed using an Eagle Eye II system (Stratagene, La Jolla, CA, USA). The quantitative analysis of the DNA Topo II activity was performed as described previously.
smiles,measurement,setting,value
"CC[C@@]1(C)CCC[C@]2(C)[C@H]3C[C@@H](OC(=O)C[C@@H](C)O)[C@]4(C)[C@@H](C=O)C(C(C)=O)=CC[C@H]4[C@]3(C)CC[C@@H]12 (relative stereo) [Compound 1, 12β-(3′β-hydroxybutanoyloxy)-20,24-dimethyl-24-oxo-scalara-16-en-25-al]",levels of ER stress-related proteins,[1],"promoted the levels of Bip, Chop, Grp 94 as well as the activation and cleavage of ATF 6 but suppressed the levels of PERK and IRE 1"
same,apoptotic population of Molt 4 cells,"Molt 4 cells; 0, 0.0625, 0.125 and 0.25 μg/mL, 24 h, annexin-V/PI",increase in the apoptotic population
same,lowest dose inducing mitochondrial dysfunction and apoptotic cell death,"Molt 4 cells; 24 h, flow cytometry",0.0625 µg/mL
same,concentration that triggered MMP disruption and apoptosis,"Molt 4 cells; Molt 4 cells, molar value in brackets",125 nM
same,IC50,HL 60 cells,0.01 µg/mL
same,localization of Hsp70,Hsp70 in Molt 4 cells,predominantly accumulated in cytosol
same,inhibition at 0.08 µg/mL,human topoisomerase II; 0.08 μg/mL,12%
same,inhibition at 0.312 µg/mL,human topoisomerase II; 0.312 μg/mL,13%
same,inhibition at 1.25 µg/mL,human topoisomerase II; 1.25 μg/mL,17%
same,inhibition at 5 µg/mL,human topoisomerase II; 5 μg/mL,20%
same,inhibition at 20 µg/mL,human topoisomerase II; 20 μg/mL,99%
